Data as given in patent publication US9179678B2, “Substituted [1,2,4]triazoles and substituted tetrazoles as herbicides” (SYNGENTA LIMITED, priority 2012, dated 2015).

Legend:
Type in all cases: in vivo
[1] = test system: Ipomoea hederacea (IPOHE); assay: Pre-emergence glasshouse herbicide test; settings: PRE Application, 1000 g/h, after 13 days
[2] = test system: Alopecurus myosuroides (ALOMY); assay: Pre-emergence glasshouse herbicide test; settings: PRE Application, 1000 g/h, after 13 days
Procedure, shortened: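 This pre-emergence glasshouse test used pots of standard soil sown with ALOMY seed and cultivated for one day under controlled conditions of 24/16° C., 14 hours light and 65% humidity. An aqueous spray from an acetone/water (50:50) formulation with 0.5% Tween 20 was applied. After 13 days of further growth with twice-daily watering, plant damage was rated as a percentage.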

[3] = test system: Echinochloa crus-galli (ECHCG); assay: Pre-emergence glasshouse herbicide test; settings: PRE Application, 1000 g/h, after 13 days
[4] = test system: Solanum nigrum (SOLNI); assay: Pre-emergence glasshouse herbicide test; settings: PRE Application, 1000 g/h, after 13 days
[5] = test system: Amaranthus retoflexus (AMARE); assay: Pre-emergence glasshouse herbicide test; settings: PRE Application, 1000 g/h, after 13 days
[6] = test system: Setaria faberi (SETFA); assay: Pre-emergence glasshouse herbicide test; settings: PRE Application, 1000 g/h, after 13 days
[7] = test system: Ipomoea hederacea (IPOHE); assay: Post-emergence glasshouse herbicide test; settings: POST Application, 1000 g/h, after 13 days
[8] = test system: Alopecurus myosuroides (ALOMY); assay: Post-emergence glasshouse herbicide test; settings: POST Application, 1000 g/h, after 13 days
Procedure, shortened: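 In this glasshouse post-emergence test, ALOMY plants were cultivated in standard soil for 8 days under controlled conditions (24/16° C. day/night, 14 hours light, 65% humidity). They were then treated with a spray derived from an acetone/water (50:50) formulation with 0.5% Tween 20, grown on with watering twice daily, and rated for percentage damage after 13 days.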

[9] = test system: Echinochloa crus-galli (ECHCG); assay: Post-emergence glasshouse herbicide test; settings: POST Application, 1000 g/h, after 13 days
[10] = test system: Solanum nigrum (SOLNI); assay: Post-emergence glasshouse herbicide test; settings: POST Application, 1000 g/h, after 13 days
Procedure, shortened: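 This glasshouse post-emergence herbicide test used Solanum nigrum plants sown in standard soil and cultivated for 8 days under controlled conditions (24/16° C. day/night, 14 hours light, 65% humidity). An aqueous spray from an acetone/water (50:50) solution with 0.5% Tween 20 was applied. Plants were watered twice daily, and damage to each plant was assessed as a percentage 13 days later.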

[11] = test system: Amaranthus retoflexus (AMARE); assay: Post-emergence glasshouse herbicide test; settings: POST Application, 1000 g/h, after 13 days
[12] = test system: Setaria faberi (SETFA); assay: Post-emergence glasshouse herbicide test; settings: POST Application, 1000 g/h, after 13 days
Procedure, shortened: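 This post-emergence glasshouse herbicide test used SETFA plants raised in pots of standard soil for 8 days under controlled conditions (24/16° C., 14 hours light, 65% humidity). An aqueous spray made from acetone/water (50:50) with 0.5% Tween 20 was applied. Plants were watered twice daily, and percentage plant damage was assessed 13 days later.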

Structure (SMILES) | percentage damage caused to the plant, IPOHE [1] | percentage damage caused to the plant, ALOMY [2] | percentage damage caused to the plant, ECHCG [3] | percentage damage caused to the plant, SOLNI [4] | percentage damage caused to the plant, AMARE [5] | percentage damage caused to the plant, SETFA [6] | percentage damage caused to the plant, IPOHE [7] | percentage damage caused to the plant, ALOMY [8] | percentage damage caused to the plant, ECHCG [9] | percentage damage caused to the plant, SOLNI [10] | percentage damage caused to the plant, AMARE [11] | percentage damage caused to the plant, SETFA [12]
CCn1c(=O)c(C(=O)Nc2nnnn2C)cc2cnc(Cl)cc21 [Compound 2.002] | 3 (3=40-59%) | 1 (1=0-19%) | 2 (2=20-39%) | 4 (4=60-79%) | 5 (5=80-100%) | 1 (1=0-19%) | 5 (5=80-100%) | 1 (1=0-19%) | 2 (2=20-39%) | 5 (5=80-100%) | 5 (5=80-100%) | 1 (1=0-19%)
COc1ccc(-n2c(=O)c(C(=O)Nc3nnnn3C)nc3ccccc32)cc1Cl [Compound 5.039] | 2 (2=20-39%) | 1 (1=0-19%) | 3 (3=40-59%) | 5 (5=80-100%) | 5 (5=80-100%) | 2 (2=20-39%) | 5 (5=80-100%) | 1 (1=0-19%) | 3 (3=40-59%) | 5 (5=80-100%) | 5 (5=80-100%) | 1 (1=0-19%)
Cn1nnnc1NC(=O)c1nc2ccc(Cl)cc2n(-c2ccccc2)c1=O [Compound 5.008] | 5 (5=80-100%) | 2 (2=20-39%) | 2 (2=20-39%) | 5 (5=80-100%) | 5 (5=80-100%) | 5 (5=80-100%) | 5 (5=80-100%) | 2 (2=20-39%) | 2 (2=20-39%) | 5 (5=80-100%) | 5 (5=80-100%) | 5 (5=80-100%)
Cn1nnnc1NC(=O)c1nc2ccccc2n(-c2ccc(Cl)c(Cl)c2)c1=O [Compound 5.035] | 5 (5=80-100%) | 3 (3=40-59%) | 2 (2=20-39%) | 5 (5=80-100%) | 5 (5=80-100%) | 5 (5=80-100%) | 5 (5=80-100%) | 2 (2=20-39%) | 2 (2=20-39%) | 5 (5=80-100%) | 5 (5=80-100%) | 4 (4=60-79%)
Cn1nnnc1NC(=O)c1nc2ccccc2n(-c2ccc(Cl)c(C(F)(F)F)c2)c1=O [Compound 5.037] | 5 (5=80-100%) | 4 (4=60-79%) | 2 (2=20-39%) | 5 (5=80-100%) | 5 (5=80-100%) | 5 (5=80-100%) | 5 (5=80-100%) | 4 (4=60-79%) | 5 (5=80-100%) | 5 (5=80-100%) | 5 (5=80-100%) | 5 (5=80-100%)
Cn1nnnc1NC(=O)c1cc2ccncc2n(-c2ccccc2)c1=O [Compound 8.001] | 1 (1=0-19%) | 1 (1=0-19%) | 1 (1=0-19%) | 2 (2=20-39%) | 5 (5=80-100%) | 1 (1=0-19%) | 3 (3=40-59%) | 1 (1=0-19%) | 4 (4=60-79%) | 5 (5=80-100%) | 5 (5=80-100%) | 1 (1=0-19%)
Cn1nnnc1NC(=O)c1nc2ccccc2n(-c2ccccc2)c1=O [Compound 5.004] | 5 (5=80-100%) | 3 (3=40-59%) | 5 (5=80-100%) | 5 (5=80-100%) | 5 (5=80-100%) | 4 (4=60-79%) | 5 (5=80-100%) | 2 (2=20-39%) | 3 (3=40-59%) | 5 (5=80-100%) | 5 (5=80-100%) | 2 (2=20-39%)
Cn1nnnc1NC(=O)c1cc2cc(F)cnc2n(-c2ccccc2)c1=O [Compound 6.001] | 4 (4=60-79%) | 1 (1=0-19%) | 3 (3=40-59%) | 5 (5=80-100%) | 4 (4=60-79%) | 1 (1=0-19%) | 5 (5=80-100%) | 3 (3=40-59%) | 5 (5=80-100%) | 5 (5=80-100%) | 5 (5=80-100%) | 3 (3=40-59%)
Cn1nnnc1NC(=O)c1nc2cccnc2n(-c2ccccc2)c1=O [Compound 4.002] | 1 (1=0-19%) | 1 (1=0-19%) | 1 (1=0-19%) | 1 (1=0-19%) | 1 (1=0-19%) | 1 (1=0-19%) | 1 (1=0-19%) | 1 (1=0-19%) | 1 (1=0-19%) | 3 (3=40-59%) | 2 (2=20-39%) | 1 (1=0-19%)
